# What was measured:
# Format in all cases: cell-based, rat
# Settings in all cases: primary cultures of cardiomyocytes
# Amotl1 = experiment: RT-qPCR control of RNA interference efficiency, Amotl1
# Protocol: (§1) cDNAs were reverse transcribed from RNAs extracted in TRIzol from cell cultures and isolated hearts using the Quanti-Tect kit (Qiagen) and Superscript II Reverse Transcriptase (Life Technologies) respectively. Quantitative PCR was carried out on a StepOne System (Life Technologies) using Fast Start SYBR Green Master (Roche). Quantification of gene expression was calculated as R=2^ΔCt(control-target), with Gapdh used as a control. Primers were designed using the NCBI Primer-BLAST software. Primer sequences are listed in Supplementary Table 1.
# (§2) Primary cultures of newborn rat cardiomyocytes, performed as previously described^34, were transfected with siRNA at 10 pM using Lipofectamine RNAiMax with silencer-siRNA at 24 h and analysed at 72 h, or 96 h (FIG. 3c). Control (Ambion 4390843), Fat4 (siRNA-1: Ambion s172170, siRNA-2: […], siRNA-3 […]), Amotl1 (siRNA-1: […], siRNA-2: […], siRNA-3: […]), Yap1 (siRNA-1: Ambion s170200, siRNA-2: […], siRNA-3: […]) siRNA were used. Efficiency of the interference was controlled by RT-qPCR. In the figures, Fat4 siRNA is Fat4-siRNA-1, Yap1 siRNA is a pool of siRNA-1 to 3 and Amotl1 siRNA is a pool of siRNA-1 to 3.
# Fat4 = experiment: RT-qPCR control of RNA interference efficiency, Fat4
# Protocol: as §1, §2
# Yap1 = experiment: RT-qPCR control of RNA interference efficiency, Yap1
# Protocol: as §1, §2
substance,measurement,setting,value
"Amotl1 siRNA-2: siRNA against rat Amotl1, GAGUAUCUCAGAGGCCUAUTT (chemistry not given here)",down-regulation of Amotl1 relative to Gapdh transcripts,Amotl1,Efficient down-regulation
"Amotl1 siRNA-3: siRNA against rat Amotl1, CAUCACAUGUCCCAGAAUATT (chemistry not given here)",down-regulation of Amotl1 relative to Gapdh transcripts,Amotl1,Efficient down-regulation
"Amotl siRNA-1: siRNA against rat Amotl1, AUCUCUACCAUUUGUUGGGTT (chemistry not given here)",down-regulation of Amotl1 relative to Gapdh transcripts,Amotl1,Efficient down-regulation
"Fat4 siRNA-2: siRNA against rat Fat4, CCUGUACCCUGAGUAUUGATT (chemistry not given here)",down-regulation of Fat4 relative to Gapdh transcripts,Fat4,Efficient down-regulation
"Fat4 siRNA-3: siRNA against rat Fat4, CCGUCCUUGUGUUUAACGUTT (chemistry not given here)",down-regulation of Fat4 relative to Gapdh transcripts,Fat4,Efficient down-regulation
"Yap1 siRNA-2: siRNA against rat Yap1, GUCAGAGAUACUUCUUAAATT (chemistry not given here)",down-regulation of Yap1 relative to Gapdh transcripts,Yap1,Efficient down-regulation
"Yap1 siRNA-3: siRNA against rat Yap1, GGAGAAGUUUACUACAUAATT (chemistry not given here)",down-regulation of Yap1 relative to Gapdh transcripts,Yap1,Efficient down-regulation

# Reference: US20160361340A1, “TREATMENT OF CARDIAC DISEASES WITH MODULATORS OF THE HIPPO PATHWAY” (INSTITUT PASTEUR, priority 2014, published 2016)
